Patent US20240199635A1, “TETRAHYDROTHIENO PYRIDINE DERIVATIVES AS DDRS INHIBITORS” (CHIESI FARMACEUTICI S.P.A., priority 2021, published 2024)

Key:
DDR2 [1] = biological target: T1, DDR2 (Homo sapiens (Human), UniProt Q16832); assay: DDR2 binding assay (LanthaScreen Europium Kinase Binding assay); details: potency class, read-out: Ki DDR2
Experimental: (§1) DDR1 and DDR2 binding assays were performed using Life Technologies LanthaScreen™ Europium Kinase Binding assay. The compounds were incubated with 5 nM DDR1 (Carna Biosciences) or 5 nM DDR2 (Life Technologies) for 1 hour at room temperature in white 384-well OptiPlate (PerkinElmer), containing 20 nM or 10 nM Kinase Tracer 178 respectively and 2 nM Europium labelled anti-GST antibody (Life Technologies) in assay buffer (50 mM HEPES pH 7.5, 10 mM MgCl2, 1 mM EGTA and 0.01% BRIJ35).
(§2) The ratio of fluorescence emission 665 nm/615 nm after excitation at 340 nm was obtained using the Tecan Spark 20M plate reader. IC50 values were determined in GraphPad Prism 7.0 software, using 4 parameter model: log(inhibitor) vs. response. IC50 values were converted in Ki using the Cheng-Prusoff equation (Ki=IC50/(1+[Tracer]/Kd).

DDR2 [2] = biological target: T1, DDR2; assay: DDR2 cell based assay (phospho-ELISA in HEK293T-DDR2 recombinant cells); details: DDR2 phosphorylation, Type II Collagen stimulation, potency class, read-out: IC50DDR2
Experimental: The inhibition of DDR2 phosphorylation by compounds was evaluated in HEK293T-DDR2 recombinant cells by phospho-ELISA assay. Briefly, HEK293T-DDR2 cells were seeded in poly-D-lysine-coated 24-well plates at a density of 250,000 cells/well and incubated for 1.5 hours at 37° C. and 5% CO2 in DMEM+10% FBS. After that, the medium was changed to serum-free DMEM and cells were incubated for 3 hours. Then. test compounds were added at different concentrations 30 minutes before stimulation with bovine Type II Collagen at […] for further 3 hours. For DDR2 phospho-ELISA assay (DuoSet IC Human Phospho-DDR2; R&D Systems), protein extracts were obtained by adding 60 μl/well of lysis buffer prepared according to the manufacturer's instructions. Protein concentration in the samples was determined by BCA assay and the levels of phospho-DDR2 were determined following R&D Systems indications. Raw data were normalized to maximal inhibition control (0% for normalization) and positive control (100% for normalization; cells treated with 20 μg/ml collagen II) and IC50 parameters were calculated in GraphPad Prism 8.0 software, using sigmoidal dose-response curve fitting with variable slope.

DDR1 [3] = biological target: T2, DDR1 (Homo sapiens (Human), UniProt Q08345); assay: DDR1 cell based assay (PathHunter U2OS DDR1 assay); details: U2OS-DDR1 cells, Type II Collagen stimulation, potency class
T2 sequence (Q08345 19-913): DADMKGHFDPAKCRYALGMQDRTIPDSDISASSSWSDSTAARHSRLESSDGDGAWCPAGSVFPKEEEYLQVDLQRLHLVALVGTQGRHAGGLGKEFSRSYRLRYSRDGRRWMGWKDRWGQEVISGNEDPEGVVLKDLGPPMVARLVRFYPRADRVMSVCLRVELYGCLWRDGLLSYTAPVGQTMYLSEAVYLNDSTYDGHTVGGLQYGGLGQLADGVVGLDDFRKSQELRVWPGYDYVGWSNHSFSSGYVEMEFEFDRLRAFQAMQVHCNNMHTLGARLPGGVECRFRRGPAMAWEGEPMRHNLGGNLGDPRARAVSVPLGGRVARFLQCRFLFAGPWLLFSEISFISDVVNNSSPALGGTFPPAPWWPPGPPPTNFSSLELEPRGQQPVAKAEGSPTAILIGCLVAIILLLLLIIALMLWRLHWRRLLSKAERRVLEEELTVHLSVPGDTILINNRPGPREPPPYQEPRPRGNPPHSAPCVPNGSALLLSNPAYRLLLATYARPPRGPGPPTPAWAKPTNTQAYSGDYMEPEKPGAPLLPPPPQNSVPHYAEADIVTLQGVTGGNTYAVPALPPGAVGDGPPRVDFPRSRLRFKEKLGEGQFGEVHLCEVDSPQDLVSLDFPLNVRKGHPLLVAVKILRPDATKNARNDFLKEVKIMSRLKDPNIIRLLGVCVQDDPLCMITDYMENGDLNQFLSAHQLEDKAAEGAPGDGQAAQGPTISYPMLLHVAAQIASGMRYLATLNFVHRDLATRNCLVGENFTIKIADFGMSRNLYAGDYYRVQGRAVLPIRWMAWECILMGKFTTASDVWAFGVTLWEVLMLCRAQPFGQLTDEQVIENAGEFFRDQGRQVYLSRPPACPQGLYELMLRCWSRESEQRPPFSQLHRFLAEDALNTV
Experimental: The inhibition of DDR1 receptor activation by compounds was evaluated by PathHunter® U2OS DDR1 assay (Eurofins DiscoverX), according to the manufacturer's instructions. Briefly, U2OS-DDR1 cells were seeded in white 384-well plates at a density of 5000 cells/well and incubated for 2 hours at 37° C. and 5% CO2. Cells were then treated with compounds at different concentrations and incubated for 30 minutes, before stimulation with bovine Type II Collagen 20 μg/ml and incubation overnight at 37° C. and 5% CO2. PathHunter Detection Reagents were prepared according to the protocol provided by DiscoverX and 20 μl/well of this mix were added to each well. After incubating the plates for 1 hour at room temperature in the dark, luminescence signal was acquired with a plate reader. Raw data were normalized to vehicle control (0% for normalization) and positive control (100% for normalization; cells treated with 20 μg/ml collagen II) and IC50 parameters were calculated in GraphPad Prism 8.0 software, using sigmoidal dose-response curve fitting with variable slope.

DDR1 [4] = biological target: T2, DDR1; assay: DDR1 binding assay (LanthaScreen Europium Kinase Binding assay); details: potency class, read-out: Ki DDR1
Experimental: as §1, §2

T1 sequence (Q16832 22-855): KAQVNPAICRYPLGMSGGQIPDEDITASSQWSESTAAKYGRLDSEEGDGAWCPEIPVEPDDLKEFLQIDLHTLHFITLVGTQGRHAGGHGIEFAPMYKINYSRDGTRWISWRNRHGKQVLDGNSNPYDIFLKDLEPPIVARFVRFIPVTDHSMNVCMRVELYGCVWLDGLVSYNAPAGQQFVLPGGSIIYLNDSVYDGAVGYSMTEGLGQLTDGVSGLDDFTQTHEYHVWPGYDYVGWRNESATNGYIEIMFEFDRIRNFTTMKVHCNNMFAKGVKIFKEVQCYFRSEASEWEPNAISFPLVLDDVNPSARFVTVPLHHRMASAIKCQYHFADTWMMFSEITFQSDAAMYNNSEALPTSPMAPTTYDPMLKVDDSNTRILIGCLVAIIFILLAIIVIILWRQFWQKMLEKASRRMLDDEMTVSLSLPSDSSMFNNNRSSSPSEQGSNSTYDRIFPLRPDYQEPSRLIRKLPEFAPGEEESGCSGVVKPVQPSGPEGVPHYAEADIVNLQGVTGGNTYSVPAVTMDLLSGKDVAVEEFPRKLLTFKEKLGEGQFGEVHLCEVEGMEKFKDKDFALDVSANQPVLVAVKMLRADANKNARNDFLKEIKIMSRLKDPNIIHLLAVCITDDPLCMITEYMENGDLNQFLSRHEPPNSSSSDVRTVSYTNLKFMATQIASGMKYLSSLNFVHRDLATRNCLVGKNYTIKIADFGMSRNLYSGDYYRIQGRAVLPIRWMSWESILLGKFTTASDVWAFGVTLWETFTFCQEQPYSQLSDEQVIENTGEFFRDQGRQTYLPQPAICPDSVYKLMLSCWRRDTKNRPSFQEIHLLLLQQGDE

SMILES | Ki (DDR2 [1]) | IC50 (DDR2 [2]) | IC50 (DDR1 [3]) | Ki (DDR1 [4])
O=C(Nc1cccc(C(F)(F)F)c1)c1csc2c1CCN(Cc1cncnc1)C2 [Example 5, 6-(pyrimidin-5-ylmethyl)-N-(3-(trifluoromethyl)phenyl)-4,5,6,7-tetrahydrothieno[2,3-c]pyridine-3-carboxamide] | < 25 nM | < 25 nM | 25 to 50 nM | < 25 nM
Cn1cc(Nc2ncc(CN3CCc4c(C(=O)Nc5cc(C(C)(C)C)nn5C)csc4C3)cn2)cn1 [Example 16, N-(3-(tert-butyl)-1-methyl-1H-pyrazol-5-yl)-6-((2-((1-methyl-1H-pyrazol-4-yl)amino)pyrimidin-5-yl)methyl)-4,5,6,7-tetrahydrothieno[2,3-c]pyridine-3-carboxamide] | < 25 nM | < 25 nM | < 25 nM | < 25 nM
CN(C)CC(=O)Nc1cncc(CN2CCc3c(C(=O)Nc4cccc(C(F)(F)F)c4)csc3C2)c1 [Example 31, 6-((5-(2-(dimethylamino)acetamido)pyridin-3-yl)methyl)-N-(3-(trifluoromethyl)phenyl)-4,5,6,7-tetrahydrothieno[2,3-c]pyridine-3-carboxamide] | < 25 nM | 25 to 50 nM | 25 to 50 nM | < 25 nM
Nc1ncc(CN2CCc3c(C(=O)Nc4cc(F)cc(C(F)(F)F)c4)csc3C2)cn1 [Example 38, 6-((2-aminopyrimidin-5-yl)methyl)-N-(3-fluoro-5-(trifluoromethyl)phenyl)-4,5,6,7-tetrahydrothieno[2,3-c]pyridine-3-carboxamide] | < 25 nM | < 25 nM | < 25 nM | < 25 nM
CC(=O)Nc1ncc(CN2CCc3c(C(=O)Nc4cc(F)cc(C(F)(F)F)c4)csc3C2)cn1 [Example 39, 6-((2-acetamidopyrimidin-5-yl)methyl)-N-(3-fluoro-5-(trifluoromethyl)phenyl)-4,5,6,7-tetrahydrothieno[2,3-c]pyridine-3-carboxamide] | < 25 nM | 25 to 50 nM | 25 to 50 nM | < 25 nM
CC(=O)Nc1ccc(CN2CCc3c(C(=O)Nc4cc(F)cc(C(F)(F)F)c4)csc3C2)cn1 [Example 42, 6-((6-acetamidopyridin-3-yl)methyl)-N-(3-fluoro-5-(trifluoromethyl)phenyl)-4,5,6,7-tetrahydrothieno[2,3-c]pyridine-3-carboxamide] | < 25 nM | < 25 nM | < 25 nM | < 25 nM
CN(C)Cc1cc(NC(=O)c2csc3c2CCN(Cc2cnc(N)nc2)C3)cc(C(F)(F)F)n1 [Example 57, 6-((2-aminopyrimidin-5-yl)methyl)-N-(2-((dimethylamino)methyl)-6-(trifluoromethyl)pyridin-4-yl)-4,5,6,7-tetrahydrothieno[2,3-c]pyridine-3-carboxamide] | 25 to 50 nM | – | 25 to 50 nM | < 25 nM
CC(F)(F)c1cccc(NC(=O)c2csc3c2CCN(Cc2cnc(N)nc2)C3)c1 [Example 58, 6-((2-aminopyrimidin-5-yl)methyl)-N-(3-(1,1-difluoroethyl)phenyl)-4,5,6,7-tetrahydrothieno[2,3-c]pyridine-3-carboxamide] | < 25 nM | 25 to 50 nM | 25 to 50 nM | < 25 nM
Nc1ncc(CN2CCc3c(C(=O)Nc4cncc(OC(F)(F)F)c4)csc3C2)cn1 [Example 60, 6-((2-aminopyrimidin-5-yl)methyl)-N-(5-(trifluoromethoxy)pyridin-3-yl)-4,5,6,7-tetrahydrothieno[2,3-c]pyridine-3-carboxamide] | < 25 nM | – | < 25 nM | < 25 nM
CC(C)(c1cc(NC(=O)c2csc3c2CCN(Cc2cnc(N)nc2)C3)no1)C(F)(F)F [Example 62, 6-((2-aminopyrimidin-5-yl)methyl)-N-(5-(1,1,1-trifluoro-2-methylpropan-2-yl)isoxazol-3-yl)-4,5,6,7-tetrahydrothieno[2,3-c]pyridine-3-carboxamide] | < 25 nM | – | < 25 nM | < 25 nM
Cn1nc(NC(=O)c2csc3c2CCN(Cc2cnc(N)nc2)C3)cc1C(C)(C)C [Example 63, 6-((2-aminopyrimidin-5-yl)methyl)-N-(5-(tert-butyl)-1-methyl-1H-pyrazol-3-yl)-4,5,6,7-tetrahydrothieno[2,3-c]pyridine-3-carboxamide] | < 25 nM | < 25 nM | < 25 nM | < 25 nM
COc1cncc(CN2CCc3c(C(=O)Nc4cc(C(C)(C)C)no4)csc3C2)c1 [Example 65, N-(3-(tert-butyl)isoxazol-5-yl)-6-((5-methoxypyridin-3-yl)methyl)-4,5,6,7-tetrahydrothieno[2,3-c]pyridine-3-carboxamide] | < 25 nM | – | 25 to 50 nM | < 25 nM

Now from value to molecule:

Ki (DDR2 [1]) | IC50 (DDR2 [2]) | IC50 (DDR1 [3]) | Ki (DDR1 [4]) | SMILES
< 25 nM | < 25 nM | < 25 nM | < 25 nM | O=C(Nc1cc(F)cc(C(F)(F)F)c1)c1csc2c1CCN(Cc1cncnc1)C2 [Example 4, N-(3-fluoro-5-(trifluoromethyl)phenyl)-6-(pyrimidin-5-ylmethyl)-4,5,6,7-tetrahydrothieno[2,3-c]pyridine-3-carboxamide]
< 25 nM | < 25 nM | < 25 nM | < 25 nM | Cn1cc(Nc2ncc(CN3CCc4c(C(=O)Nc5cccc(C(F)(F)F)c5)csc4C3)cn2)cn1 [Example 18, 6-((2-((1-methyl-1H-pyrazol-4-yl)amino)pyrimidin-5-yl)methyl)-N-(3-(trifluoromethyl)phenyl)-4,5,6,7-tetrahydrothieno[2,3-c]pyridine-3-carboxamide]
< 25 nM | < 25 nM | < 25 nM | < 25 nM | Nc1ncncc1CN1CCc2c(C(=O)Nc3cc(F)cc(C(F)(F)F)c3)csc2C1 [Example 45, 6-((4-aminopyrimidin-5-yl)methyl)-N-(3-fluoro-5-(trifluoromethyl)phenyl)-4,5,6,7-tetrahydrothieno[2,3-c]pyridine-3-carboxamide]
< 25 nM | < 25 nM | < 25 nM | < 25 nM | Nc1nccnc1CN1CCc2c(C(=O)Nc3cc(F)cc(C(F)(F)F)c3)csc2C1 [Example 46, 6-((3-aminopyrazin-2-yl)methyl)-N-(3-fluoro-5-(trifluoromethyl)phenyl)-4,5,6,7-tetrahydrothieno[2,3-c]pyridine-3-carboxamide]
25 to 50 nM | – | 25 to 50 nM | < 25 nM | CN(C)Cc1ccc(NC(=O)c2csc3c2CCN(Cc2cnc(N)nc2)C3)cc1C(F)(F)F [Example 56, 6-((2-aminopyrimidin-5-yl)methyl)-N-(4-((dimethylamino)methyl)-3-(trifluoromethyl)phenyl)-4,5,6,7-tetrahydrothieno[2,3-c]pyridine-3-carboxamide]
< 25 nM | – | < 25 nM | < 25 nM | N#Cc1cc(NC(=O)c2csc3c2CCN(Cc2cnc(N)nc2)C3)cc(C(F)(F)F)c1 [Example 59, 6-((2-aminopyrimidin-5-yl)methyl)-N-(3-cyano-5-(trifluoromethyl)phenyl)-4,5,6,7-tetrahydrothieno[2,3-c]pyridine-3-carboxamide]
< 25 nM | – | < 25 nM | < 25 nM | Nc1ncc(CN2CCc3c(C(=O)Nc4ccc(Cl)c(C(F)(F)F)c4)csc3C2)cn1 [Example 61, 6-((2-aminopyrimidin-5-yl)methyl)-N-(4-chloro-3-(trifluoromethyl)phenyl)-4,5,6,7-tetrahydrothieno[2,3-c]pyridine-3-carboxamide]
< 25 nM | < 25 nM | < 25 nM | < 25 nM | CC(C)(C)c1cc(NC(=O)c2csc3c2CCN(Cc2cnc(N)nc2)C3)no1 [Example 64, 6-((2-aminopyrimidin-5-yl)methyl)-N-(5-(tert-butyl)isoxazol-3-yl)-4,5,6,7-tetrahydrothieno[2,3-c]pyridine-3-carboxamide]
